Data: patent US20240270809A1, “ORAL GLP RECEPTOR AGONISTS” (priority 2020, published 2024)
Positions of bridges follow the written chain, without caps; N, C: chain ends. Non-standard residues stand in square brackets, D forms with d. Residues, ends and D or L forms follow the SMILES beside them. *: point of attachment. Malonyl(2,2-Me2,histaminyl) = CC(C)(C(=O)NCCc1cnc[nH]1)C(=O)*; Ala(1H-tetrazol-5-yl) = N[C@@H](Cc1nnn[nH]1)C(=O)O; αMePhe(2-F) = C[C@](N)(Cc1ccccc1F)C(=O)O; αMeL = CC(C)C[C@](C)(N)C(=O)O; Nle = CCCC[C@H](N)C(=O)O; Aib = CC(C)(N)C(=O)O

What was measured:
human GLP1 receptor = target: T1, human GLP1 receptor (Homo sapiens, UniProt P43220); test: cAMP accumulation assay, functional agonism of human GLP1 receptor; assay type: cell-based; settings: HEK cells infected with human GLP1 receptor BacMam virus, HTRF cAMP; for Emax: HEK293, read-out: Human GLP-1R agonist cAMP Emax; for EC50: read-out: Human GLP-1R agonist cAMP pEC50 (converted)
T1 construct: expressed in transfected cells; host or cells: HEK cells, BacMam virus transduction
In short: (§1)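 HEK cells transduced for 24 hours with human GLP2 or GLP1 receptor BacMam virus were frozen, then stimulated with agonist in HBSS containing 0.5 mM IBMX. After 45 min at 37° C, cAMP was measured by HTRF after adding detection reagents in lysis buffer.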

[1] = Stability of peptides in Fasted-State Simulated Gastric Fluid (FaSSGF); assay type: in vitro ADME; settings: FaSSGF with 0.1 mg/ml pepsin; t=30 mins, 37° C., pH 1.6, 0.1 mg/ml pepsin
Description: Stability of peptides was tested in Fasted-State Simulated gastric Fluid (FaSSGF) prepared according to manufacturer's protocol (Biorelevant, art. no. FFF01). […] FaSSGF was pre-incubated for 15 min at 37° C. and spiked with test and reference item working solutions. Experiments were conducted in duplicate in a non-serial manner. The total incubation volume per replicate was 150 μl. […] All samples and calibration standards (prepared in FaSSGF) were precipitated by addition of 300 μl precipitant (ACN / 2% acetic acid / 0.2% HFBA, (precipitation regent, PR)) containing internal standards (ISTD) to 150 μl sample. After incubation for 1 h at room temperature all samples were centrifuged for 10 min at 2,200×g (room temperature).

[2] = Stability of peptides in Fasted-State Simulated Intestinal Fluid (FaSSIF); assay type: in vitro ADME; settings: FaSSIF with 10 mg/ml pancreatin; t=30 mins, 37° C., pH 6.5, 10 mg/ml pancreatin
human GLP2 receptor = target: T2, human GLP2 receptor (Homo sapiens, UniProt O95838); test: cAMP accumulation assay, functional agonism of human GLP2 receptor; assay type: cell-based; settings: HEK cells infected with human GLP2 receptor BacMam virus, HTRF cAMP; for Emax: HEK293, read-out: Human GLP-2R agonist cAMP Emax; for EC50: read-out: Human GLP-2R agonist cAMP pEC50 (converted)
T2 construct: expressed in transfected cells; host or cells: HEK cells, BacMam virus transduction
T2 sequence (O95838 1-553): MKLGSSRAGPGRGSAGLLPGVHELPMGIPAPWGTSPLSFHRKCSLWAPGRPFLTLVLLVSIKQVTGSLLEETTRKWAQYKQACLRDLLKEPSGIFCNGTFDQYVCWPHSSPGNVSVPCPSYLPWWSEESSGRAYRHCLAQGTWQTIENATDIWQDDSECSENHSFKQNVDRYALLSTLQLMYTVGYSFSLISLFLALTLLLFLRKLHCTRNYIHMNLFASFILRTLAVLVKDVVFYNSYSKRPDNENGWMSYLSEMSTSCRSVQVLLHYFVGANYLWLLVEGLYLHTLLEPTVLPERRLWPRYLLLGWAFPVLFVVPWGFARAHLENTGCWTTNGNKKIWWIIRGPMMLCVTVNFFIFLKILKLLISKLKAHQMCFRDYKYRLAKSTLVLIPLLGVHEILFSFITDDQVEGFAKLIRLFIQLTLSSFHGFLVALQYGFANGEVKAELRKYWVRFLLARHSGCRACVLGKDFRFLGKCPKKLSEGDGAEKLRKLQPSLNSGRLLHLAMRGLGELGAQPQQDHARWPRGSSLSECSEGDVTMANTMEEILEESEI
In short: as §1

mouse GLP2 receptor = target: T3, mouse GLP2 receptor (Mus musculus, UniProt Q5IXF8); test: cAMP accumulation assay, functional agonism of mouse GLP2 receptor; assay type: cell-based; settings: HEK cells transiently transfected with mouse GLP2 receptor, HTRF cAMP; for Emax: HEK293, read-out: Mouse GLP-2R agonist cAMP Emax; for EC50: read-out: Mouse GLP-2R agonist cAMP pEC50 (converted)
T3 construct: expressed in transfected cells; host or cells: HEK cells, transient transfection with GeneJuice
T3 sequence (Q5IXF8 1-512): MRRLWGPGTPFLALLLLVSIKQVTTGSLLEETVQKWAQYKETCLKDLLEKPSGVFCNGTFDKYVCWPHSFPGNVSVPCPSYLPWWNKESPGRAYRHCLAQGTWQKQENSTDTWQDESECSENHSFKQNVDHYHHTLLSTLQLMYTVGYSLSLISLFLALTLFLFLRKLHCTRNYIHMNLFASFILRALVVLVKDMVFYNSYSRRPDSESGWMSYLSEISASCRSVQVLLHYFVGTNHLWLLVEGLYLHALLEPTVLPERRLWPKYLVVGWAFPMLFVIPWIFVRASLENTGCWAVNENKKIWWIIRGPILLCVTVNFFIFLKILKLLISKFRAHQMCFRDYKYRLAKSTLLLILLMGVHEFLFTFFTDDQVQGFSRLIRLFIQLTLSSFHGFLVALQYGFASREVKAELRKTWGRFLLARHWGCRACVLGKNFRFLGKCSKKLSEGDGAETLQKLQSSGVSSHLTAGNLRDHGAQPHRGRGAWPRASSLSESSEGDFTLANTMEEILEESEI
In short: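 Transiently transfected HEK cells (24 h, frozen, 8000/well) in HBSS with 0.5 mM IBMX exposed to compound concentration series for 45 min at 37 °C. cAMP measured by HTRF after lysis and 1 h at RT; pEC50 from four-parameter concentration-response fit.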

[3] = Stability of peptides in rat intestinal fluid (ratIF); settings: Sprague Dawley, undiluted rat small intestinal fluid (ratIF)

T1 sequence (P43220 24-463): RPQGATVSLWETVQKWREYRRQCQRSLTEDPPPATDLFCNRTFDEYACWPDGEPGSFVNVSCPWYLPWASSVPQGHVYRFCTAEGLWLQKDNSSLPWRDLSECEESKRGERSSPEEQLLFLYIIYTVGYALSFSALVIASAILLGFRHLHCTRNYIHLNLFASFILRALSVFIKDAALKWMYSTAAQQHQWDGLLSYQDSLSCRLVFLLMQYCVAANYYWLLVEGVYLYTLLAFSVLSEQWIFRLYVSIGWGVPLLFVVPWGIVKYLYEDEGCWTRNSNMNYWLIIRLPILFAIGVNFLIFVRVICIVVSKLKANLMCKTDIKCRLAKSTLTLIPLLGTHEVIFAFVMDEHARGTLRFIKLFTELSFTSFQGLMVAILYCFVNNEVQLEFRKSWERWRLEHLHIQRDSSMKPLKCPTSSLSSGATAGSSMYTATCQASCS

For `CCCC[C@@H]1NC(=O)[C@H](CCC(=O)O)NC(=O)[C@@H](NC(=O)[C@H](CO)NC(=O)[C@H](Cc2ccccc2)NC(=O)[C@H](CO)NC(=O)[C@@H](C)NC(=O)[C@H](Cc2nn[nH]n2)NC(=O)C(C)(C)C(=O)NCCc2c[nH]cn2)CCCCNC(=O)C[C@@H](C(=O)N[C@H](C(=O)N[C@@H](CC(C)C)C(=O)N[C@@H](CC(=O)O)C(=O)N[C@H]2CCC(=O)NCCCC[C@@H](C(=O)N[C@@H](CC(=O)O)C(=O)N[C@@H](Cc3ccccc3)C(=O)N[C@H](C(=O)N[C@H]3CCCCNC(=O)C[C@@H](C(=O)N[C@H](C(=O)N[C@H]4CCC(=O)NCCCC[C@@H](C(N)=O)NC(=O)[C@H]([C@@H](C)O)NC(=O)[C@H]([C@@H](C)CC)NC4=O)[C@@H](C)O)NC(=O)[C@H]([C@@H](C)CC)NC(=O)[C@H](CC(C)C)NC(=O)[C@H](Cc4c[nH]c5ccccc45)NC3=O)[C@@H](C)CC)NC(=O)[C@H](C)NC(=O)[C@H](C)NC(=O)[C@H](CCCCN)NC2=O)[C@@H](C)CC)NC(=O)[C@@H](Cc2ccccc2)NC1=O` [Example 38] ({Malonyl(2,2-Me2,histaminyl)}-[Ala(1H-tetrazol-5-yl)][dA]SFSKE[Nle][dF]DILDEKAAKDFIKWLIDTEITK-NH2; lactam 6-10, 14-18, 22-26, 28-31 (inferred); C-terminus assumed), the Emax (human GLP1 receptor) was 88.8%, the EC50 (human GLP1 receptor) was 0.501 nM and the remaining at 0.5 h [1] was 100%. It also gave a remaining at 0.5 h [2] of 61.3%, an Emax (human GLP2 receptor) of 105% and an EC50 (human GLP2 receptor) of 0.0126 nM. For the same compound, the Emax (mouse GLP2 receptor) was 99%, the EC50 (mouse GLP2 receptor) was 3.16 nM and the remaining at 0.5 h [3] was 33.4%.
`CCCC[C@@H]1NC(=O)[C@H](CCC(=O)O)NC(=O)[C@@H](NC(=O)[C@H](CO)NC(=O)[C@H](Cc2ccccc2)NC(=O)[C@H](CO)NC(=O)[C@@H](C)NC(=O)[C@H](Cc2nn[nH]n2)NC(=O)C(C)(C)C(=O)NCCc2c[nH]cn2)CCCCNC(=O)C[C@@H](C(=O)N[C@H](C(=O)N[C@@H](CC(C)C)C(=O)N[C@@H](CC(=O)O)C(=O)N[C@H]2CCC(=O)NCCCC[C@@H](C(=O)N[C@@H](CC(=O)O)C(=O)N[C@@H](Cc3ccccc3)C(=O)N[C@H](C(=O)N[C@H]3CCCCNC(=O)C[C@@H](C(=O)N[C@H]4CCC(=O)NCCCC[C@@H](C(N)=O)NC(=O)[C@H]([C@@H](C)O)NC(=O)[C@H]([C@@H](C)CC)NC(=O)[C@H](CCCCN)NC4=O)NC(=O)[C@H]([C@@H](C)CC)NC(=O)[C@H](CC(C)C)NC(=O)[C@H](Cc4c[nH]c5ccccc45)NC3=O)[C@@H](C)CC)NC(=O)[C@H](C)NC(=O)[C@H](C)NC(=O)[C@H](CCCCN)NC2=O)[C@@H](C)CC)NC(=O)[C@@H](Cc2ccccc2)NC1=O` [Example 40] ({Malonyl(2,2-Me2,histaminyl)}-[Ala(1H-tetrazol-5-yl)][dA]SFSKE[Nle][dF]DILDEKAAKDFIKWLIDEKITK-NH2; lactam 6-10, 14-18, 22-26, 27-31 (inferred); C-terminus assumed) showed an Emax (human GLP1 receptor) of 89.9%, an EC50 (human GLP1 receptor) of 0.501 nM and a remaining at 0.5 h [1] of 84.9%. For the same compound, the remaining at 0.5 h [2] was 68.7%, the Emax (human GLP2 receptor) was 105% and the EC50 (human GLP2 receptor) was 0.00631 nM. For the same compound, the Emax (mouse GLP2 receptor) was 99.6%, the EC50 (mouse GLP2 receptor) was 1.26 nM and the remaining at 0.5 h [3] was 14.7%.
Work on `CCCC[C@@H]1NC(=O)[C@H](CCC(=O)O)NC(=O)[C@@H](NC(=O)[C@H](CO)NC(=O)[C@](C)(Cc2ccccc2F)NC(=O)[C@H](CO)NC(=O)[C@@H](C)NC(=O)[C@H](CC(=O)O)NC(=O)C(C)(C)NC(=O)[C@@H](N)Cc2c[nH]cn2)CCCCNC(=O)C[C@@H](C(=O)N[C@@](C)(CC(C)C)C(=O)N[C@@H](CC(C)C)C(=O)N[C@@H](CC(=O)O)C(=O)N[C@H]2CCC(=O)NCCCC[C@@H](C(=O)N[C@@H](CC(=O)O)C(=O)N[C@@H](Cc3ccccc3)C(=O)N[C@H](C(=O)N[C@H]3CCCCNC(=O)C[C@@H](C(=O)N[C@H]4CCC(=O)NCCCC[C@@H](C(N)=O)NC(=O)[C@H]([C@@H](C)O)NC(=O)[C@H]([C@@H](C)CC)NC(=O)[C@H](CCCCN)NC4=O)NC(=O)[C@H]([C@@H](C)CC)NC(=O)[C@H](CC(C)C)NC(=O)[C@H](Cc4c[nH]c5ccccc45)NC3=O)[C@@H](C)CC)NC(=O)[C@H](C)NC(=O)[C@H](C)NC(=O)[C@H](CCCCN)NC2=O)NC(=O)[C@@H](Cc2ccccc2)NC1=O` [Example 60] (H-H[Aib]D[dA]S[αMePhe(2-F)]SKE[Nle][dF]D[αMeL]LDEKAAKDFIKWLIDEKITK-NH2; lactam 8-12, 16-20, 24-28, 29-33 (inferred); C-terminus assumed) yielded an Emax (human GLP1 receptor) of 96.5%, an EC50 (human GLP1 receptor) of 0.158 nM and a remaining at 0.5 h [1] of 100%. It also gave a remaining at 0.5 h [2] of 62.5%, an Emax (human GLP2 receptor) of 102% and an EC50 (human GLP2 receptor) of 0.0158 nM. The Emax (mouse GLP2 receptor) was 102%, the EC50 (mouse GLP2 receptor) was 0.794 nM and the remaining at 0.5 h [3] was 89.6%.
`CCCC[C@H](NC(=O)[C@H](CCC(=O)O)NC(=O)[C@H](CC(=O)O)NC(=O)[C@H](CO)NC(=O)[C@](C)(Cc1ccccc1F)NC(=O)[C@H](CO)NC(=O)CNC(=O)[C@H](CC(=O)O)NC(=O)C(C)(C)NC(=O)[C@@H](N)Cc1c[nH]cn1)C(=O)N[C@H](Cc1ccccc1)C(=O)N[C@H]1CCC(=O)NCCCC[C@@H](C(=O)N[C@H]2CCC(=O)NCCCC[C@@H](C(=O)N[C@@H](CC(=O)O)C(=O)N[C@@H](Cc3ccccc3)C(=O)N[C@H](C(=O)N[C@H]3CCC(=O)NCCCC[C@@H](C(=O)N[C@H]4CCCCNC(=O)CC[C@@H](C(N)=O)NC(=O)[C@H]([C@@H](C)O)NC(=O)[C@H]([C@@H](C)CC)NC(=O)[C@H](CCCCN)NC4=O)NC(=O)[C@H]([C@@H](C)CC)NC(=O)[C@H](CC(C)C)NC(=O)[C@H](Cc4c[nH]c5ccccc45)NC3=O)[C@@H](C)CC)NC(=O)[C@H](C)NC(=O)[C@H](C)NC2=O)NC(=O)[C@H](CC(=O)O)NC(=O)[C@H](CC(C)C)NC(=O)[C@H]([C@@H](C)CC)NC1=O` [Example 48] showed an Emax (human GLP1 receptor) of 98.7%, an EC50 (human GLP1 receptor) of 0.0158 nM and a remaining at 0.5 h [1] of 100%. For the same compound, the remaining at 0.5 h [2] was 80.2%, the Emax (human GLP2 receptor) was 101% and the EC50 (human GLP2 receptor) was 0.00794 nM. For the same compound, the Emax (mouse GLP2 receptor) was 103%, the EC50 (mouse GLP2 receptor) was 0.0631 nM and the remaining at 0.5 h [3] was 100%.
